# Reference: PubChem BioAssay AID2031 (NMMLSC, 2009)
# Biological target: Rab7 GTPase wild-type (dog), GST fusion
# Assay: analogs blocking nucleotide binding to wildtype Rab7 – biochemical, oxadiazole analogs, multiplex bead flow cytometry, SAR follow-up (AID 2031)
# Details: bead-based flow cytometry, Bodipy-FL-GTP binding; Ki calculated from EC50
row,SMILES,Ki
1,Cc1ccc(C)c(N2CCN(C(=O)CCc3nc(-c4ccccc4)no3)CC2)c1,80 nM
2,Cc1ccc(C)c(N2CCN(C(=O)CCc3nc(-c4cccc(C(F)(F)F)c4)no3)CC2)c1,50 nM
3,COc1ccc(-c2noc(CCC(=O)N3CCN(c4ccccc4C(F)(F)F)CC3)n2)cc1,130 nM
4,COc1ccc(-c2noc(CCC(=O)N3CCN(c4ccccc4Br)CC3)n2)cc1,150 nM
5,Cc1ccc(C)c(N2CCN(C(=O)CCc3nc(-c4cccc(F)c4)no3)CC2)c1,510 nM
6,COc1ccc(-c2noc(CCC(=O)N3CCC(c4cc(C)ccc4C)CC3)n2)cc1,90 nM
7,COc1ccc(-c2noc(CCC(=O)N3CCN(c4ccccc4Cl)CC3)n2)cc1,150 nM
8,COc1ccc(-c2noc(CCC(=O)N3CCN(c4ccccc4F)CC3)n2)cc1,40 nM
9,COc1ccc(-c2noc(CCC(=O)N3CCN(c4cccc(Cl)c4)CC3)n2)cc1,2030 nM
10,Cc1ccc(C)c(N2CCN(C(=O)CCc3nc(-c4ccccc4C)no3)CC2)c1,360 nM
11,Cc1ccc(C)c(N2CCN(C(=O)CCc3nc(-c4ccccc4Br)no3)CC2)c1,270 nM

# Continued, values first:
row,Ki,SMILES
1,190 nM,Cc1ccc(C)c(N2CCN(C(=O)CCc3nc(-c4ccc(Cl)cc4)no3)CC2)c1
2,230 nM,Cc1ccc(C)c(N2CCN(C(=O)CCc3nc(-c4cccc(Br)c4)no3)CC2)c1
3,40 nM,Cc1ccc(C)c(N2CCN(C(=O)CCc3nc(-c4ccc(F)cc4)no3)CC2)c1
4,100 nM,Cc1ccc(C)c(N2CCN(C(=O)CCc3nc(-c4ccc(Br)cc4)no3)CC2)c1
5,940 nM,COc1ccc(-c2noc(CCCC(=O)N3CCN(c4cc(C)ccc4C)CC3)n2)cc1
6,220 nM,COc1cccc(-c2noc(CCC(=O)N3CCN(c4cc(C)ccc4C)CC3)n2)c1
7,160 nM,COc1ccc(-c2noc(CCC(=O)N3CCN(c4cc(C)ccc4C)CC3)n2)cc1
8,70 nM,Cc1cccc(-c2noc(CCC(=O)N3CCN(c4cc(C)ccc4C)CC3)n2)c1
9,290 nM,Cc1ccc(-c2noc(CCC(=O)N3CCN(c4cc(C)ccc4C)CC3)n2)cc1
10,20 nM,COc1ccc(-c2cc(CCC(=O)N3CCN(c4cc(C)ccc4C)CC3)on2)cc1
11,100 nM,COc1ccc(-c2noc(CCC(=O)N3CCN(c4cccc(C)c4C)CC3)n2)cc1
